“And” between values parts separate entries of the source, which are not always exact repeats. Equal entries are not always repeated.
Legend:
A/USSR/90/1977 (H1N1) = format: cell-based, influenza A virus
[1] = tested on: A/New Jersey/8/1976 (H1N1); format: cell-based, influenza A virus
[2] = tested on: A/California/07/2009 (H1N1); format: cell-based, influenza A virus
A/Alaska/140/2015 (H3N2) = format: cell-based, influenza A virus
[3] = tested on: A/Hong Kong/156/1997 (H5N1); format: cell-based, influenza A virus
[4] = tested on: A/Solomon Islands/03/2006 (H1N1); format: cell-based, influenza A virus
[5] = tested on: A/Puerto Rico/8/1934 (H1N1); format: cell-based, influenza A virus
A/Fujian/413/2002 (H3N2) = format: cell-based, influenza A virus
[6] = tested on: A/California/02/2014 (H3N2); format: cell-based, influenza A virus
A/Perth/16/2009 (H3N2) = format: cell-based, influenza A virus
[7] = tested on: relapsed/refractory, locally advanced or metastatic solid tumors; conditions: preliminary clinical results, cited from earlier work
[8] = tested on: A549 human lung carcinoma cells; conditions: human
[9] = tested on: A/Indonesia/05/2005 (H5N1); format: cell-based, influenza A virus
NL4-3 WT HIV-1 virus = experiment: Infectious HIV-1 released by infected MT-2 cells (TZM-bl luciferase reporter); format: cell-based; conditions: 10 nM, 48 hours
in vitro [10] = conditions: human, % Dif (absorbance as percent relative to the vehicle control, relative viability)
[11] = tested on: A/Vietnam/1203/2004 (H5N1); format: cell-based, influenza A virus
MT-2 human T cell line = experiment: Cytotoxicity against uninfected MT-2 cells; format: cell-based; conditions: 1 µM, 48 hours
A/Anhui/1/2013 (H7N9) = format: cell-based, influenza A virus
A/Hawaii/15/2001 (H1N1) = format: cell-based, influenza A virus
[12] = tested on: panel of 20 influenza A viruses; format: cell-based, influenza A virus
[13] = tested on: A/New Caledonia/20/1999 (H1N1); format: cell-based, influenza A virus
A/Indiana/08/2011 (H3N2) = format: cell-based, influenza A virus
in vitro [14] = conditions: human
[15] = tested on: A/Egypt/N6658/2011 (H5N1); format: cell-based, influenza A virus
A/Texas/71/2007 (H3N2) = format: cell-based, influenza A virus
[16] = tested on: Nipah virus (Malaysian strain); experiment: microbe, parasite or virus in culture; format: cell-based
[17] = tested on: A/Minnesota/19/2011 (H1N1); format: cell-based, influenza A virus

CC1=C(COCCC(C)(C)C)C(=O)N(Nc2ccc(C(F)(F)F)c(Cl)n2)C1=O [felezonexor, 3-[(3,3-dimethylbutoxy)methyl]-1-{[6-chloro-5-(trifluoromethyl) (2-pyridyl)]amino}-4-methylazoline-2,5-dione]
Virus titer, replicates 1-3 (A/USSR/90/1977 (H1N1)): 1.50 log10TCID50/mL (3×) and 5.25 log10TCID50/mL and 5.75 log10TCID50/mL (3×) and 4.25 log10TCID50/mL (2×)
reduction in viral titers (A/USSR/90/1977 (H1N1)): greater than 1.0 log10TCID50/mL
Virus titer AVG [1]: 3.67 log10TCID50/mL and 4.00 log10TCID50/mL and 4.17 log10TCID50/mL
Virus titer, replicates 1-3 [1]: 3.75 log10TCID50/mL (3×) and 3.50 log10TCID50/mL (2×) and 4.25 log10TCID50/mL (3×) and 4.50 log10TCID50/mL
reduction in viral titers [1]: greater than 1.0 log10TCID50/mL
Virus titer AVG [2]: 2.75 log10TCID50/mL and 4.42 log10TCID50/mL and 5.42 log10TCID50/mL
Virus titer, replicates 1-3 [2]: 3.25 log10TCID50/mL and 4.25 log10TCID50/mL and 5.50 log10TCID50/mL and 2.50 log10TCID50/mL (2×) and 4.50 log10TCID50/mL (2×) and 5.75 log10TCID50/mL and 5.00 log10TCID50/mL
reduction in viral titers [2]: greater than 1.0 log10TCID50/mL
Virus titer, replicates 1-3 (A/Alaska/140/2015 (H3N2)): 1.50 log10TCID50/mL (4×) and 6.50 log10TCID50/mL and 2.50 log10TCID50/mL and 7.00 log10TCID50/mL and 2.25 log10TCID50/mL and 6.25 log10TCID50/mL
reduction in viral titers (A/Alaska/140/2015 (H3N2)): greater than 1.0 log10TCID50/mL
Virus titer AVG [3]: 2.42 log10TCID50/mL and 3.58 log10TCID50/mL and 4.50 log10TCID50/mL
Virus titer, replicates 1-3 [3]: 2.25 log10TCID50/mL (2×) and 3.50 log10TCID50/mL (2×) and 4.25 log10TCID50/mL and 2.75 log10TCID50/mL and 4.75 log10TCID50/mL and 3.75 log10TCID50/mL and 4.50 log10TCID50/mL
reduction in viral titers [3]: greater than 1.0 log10TCID50/mL
Virus titer AVG [4]: 6.00 log10TCID50/mL and 7.17 log10TCID50/mL and 7.79 log10TCID50/mL
Virus titer, replicates 1-3 [4]: 6.50 log10TCID50/mL and 6.75 log10TCID50/mL and 7.38 log10TCID50/mL and 5.75 log10TCID50/mL (2×) and 7.50 log10TCID50/mL (2×) and 8.50 log10TCID50/mL and 7.25 log10TCID50/mL
Virus titer AVG [5]: 3.42 log10TCID50/mL and 4.92 log10TCID50/mL
Virus titer, replicates 1-3 [5]: 3.50 log10TCID50/mL (2×) and 3.25 log10TCID50/mL (3×) and 4.75 log10TCID50/mL and 4.50 log10TCID50/mL and 3.75 log10TCID50/mL and 5.50 log10TCID50/mL
reduction in viral titers [5]: greater than 1.0 log10TCID50/mL
Virus titer AVG (A/Fujian/413/2002 (H3N2)): 3.25 log10TCID50/mL and 3.50 log10TCID50/mL
Virus titer, replicates 1-3 (A/Fujian/413/2002 (H3N2)): 3.00 log10TCID50/mL and 3.25 log10TCID50/mL (3×) and 3.50 log10TCID50/mL (2×) and 3.75 log10TCID50/mL (2×) and 2.75 log10TCID50/mL
reduction in viral titers (A/Fujian/413/2002 (H3N2)): no reduction in viral titers
Virus titer, replicates 1-3 [6]: 1.50 log10TCID50/mL (3×) and 5.25 log10TCID50/mL and 6.50 log10TCID50/mL (2×) and 4.75 log10TCID50/mL and 7.75 log10TCID50/mL and 4.50 log10TCID50/mL
reduction in viral titers [6]: greater than 1.0 log10TCID50/mL
Virus titer, replicates 1-3 (A/Perth/16/2009 (H3N2)): 2.25 log10TCID50/mL and 3.50 log10TCID50/mL (2×) and 4.75 log10TCID50/mL and 1.50 log10TCID50/mL and 4.25 log10TCID50/mL (2×) and 2.50 log10TCID50/mL and 3.25 log10TCID50/mL
Safety and tolerability ([7]; 57 patients with solid tumors): manageable
most common treatment related adverse events ([7]; 57 patients with solid tumors): gastrointestinal (nausea, vomiting, and diarrhea) and constitutional (fatigue, decreased appetite)
antitumor activity ([7]; 57 patients, heavily pre-treated solid tumors): durable responses, including a partial response
tolerated concentration (relative viability equivalent or greater than untreated controls) [8]: up to 100 nM
% Dif (absorbance as percent relative to the vehicle control, relative viability) ([8]; 0.5 µM): 71.6%
Virus titer AVG [9]: 4.83 log10TCID50/mL and 6.92 log10TCID50/mL and 7.58 log10TCID50/mL
Virus titer, replicates 1-3 [9]: 4.50 log10TCID50/mL and 6.50 log10TCID50/mL and 7.50 log10TCID50/mL (3×) and 5.25 log10TCID50/mL and 6.75 log10TCID50/mL and 4.75 log10TCID50/mL and 7.75 log10TCID50/mL
reduction in viral titers [9]: greater than 1.0 log10TCID50/mL
reduction of the production of infectious virus (NL4-3 WT HIV-1 virus): more than 50%
viability at 0.05 µM (in vitro [10]): 101%
viability at 0.1 µM (in vitro [10]): 125%
viability at 0.25 µM (in vitro [10]): 66.2%
viability at 0.5 µM (in vitro [10]): 71.6%
viability at 1 µM (in vitro [10]): 58.7%
Virus titer AVG [11]: 6.58 log10TCID50/mL and 8.50 log10TCID50/mL and 8.17 log10TCID50/mL
Virus titer, replicates 1-3 [11]: 6.50 log10TCID50/mL (2×) and 8.25 log10TCID50/mL (2×) and 8.50 log10TCID50/mL and 6.75 log10TCID50/mL and 7.75 log10TCID50/mL (2×) and 9.50 log10TCID50/mL
reduction in viral titers [11]: greater than 1.0 log10TCID50/mL
MT-2 cells killed (MT-2 human T cell line): about 50%
Virus titer AVG (A/Anhui/1/2013 (H7N9)): 1.50 log10TCID50/mL and 2.50 log10TCID50/mL and 2.67 log10TCID50/mL
Virus titer, replicates 1-3 (A/Anhui/1/2013 (H7N9)): 1.50 log10TCID50/mL (3×) and 2.25 log10TCID50/mL and 2.75 log10TCID50/mL (3×) and 2.50 log10TCID50/mL (2×)
reduction in viral titers (A/Anhui/1/2013 (H7N9)): greater than 1.0 log10TCID50/mL
Virus titer AVG (A/Hawaii/15/2001 (H1N1)): 2.67 log10TCID50/mL and 3.67 log10TCID50/mL and 4.83 log10TCID50/mL
Virus titer, replicates 1-3 (A/Hawaii/15/2001 (H1N1)): 2.50 log10TCID50/mL and 3.75 log10TCID50/mL (2×) and 4.75 log10TCID50/mL (2×) and 2.75 log10TCID50/mL (2×) and 3.50 log10TCID50/mL and 5.00 log10TCID50/mL
strains with viral titers reduced at least 3-fold compared to untreated controls [12]: 17 out of 20 strains
strains with viral titers reduced at least 10-fold compared to untreated controls [12]: 13 out of 20 strains
Virus titer AVG [13]: 7.17 log10TCID50/mL and 6.83 log10TCID50/mL and 7.00 log10TCID50/mL
Virus titer, replicates 1-3 [13]: 6.75 log10TCID50/mL (2×) and 7.25 log10TCID50/mL (2×) and 8.00 log10TCID50/mL and 6.50 log10TCID50/mL (3×) and 7.50 log10TCID50/mL
reduction in viral titers [13]: no reduction in viral titers
Virus titer, replicates 1-3 (A/Indiana/08/2011 (H3N2)): 3.25 log10TCID50/mL (2×) and 5.50 log10TCID50/mL (2×) and 6.75 log10TCID50/mL and 6.50 log10TCID50/mL and 7.50 log10TCID50/mL and 2.75 log10TCID50/mL and 8.50 log10TCID50/mL
reduction in viral titers (A/Indiana/08/2011 (H3N2)): greater than 1.0 log10TCID50/mL
CC50 (in vitro [14]): 240 nM
Virus titer AVG [15]: 4.08 log10TCID50/mL and 4.33 log10TCID50/mL and 4.92 log10TCID50/mL
Virus titer, replicates 1-3 [15]: 4.00 log10TCID50/mL and 4.25 log10TCID50/mL (2×) and 5.50 log10TCID50/mL and 4.50 log10TCID50/mL (3×) and 3.75 log10TCID50/mL and 4.75 log10TCID50/mL
reduction in viral titers [15]: greater than 1.0 log10TCID50/mL
Virus titer AVG (A/Texas/71/2007 (H3N2)): 2.50 log10TCID50/mL and 3.33 log10TCID50/mL and 3.92 log10TCID50/mL
Virus titer, replicates 1-3 (A/Texas/71/2007 (H3N2)): 3.25 log10TCID50/mL (2×) and 4.00 log10TCID50/mL and 3.75 log10TCID50/mL (2×) and 2.75 log10TCID50/mL (2×) and 1.50 log10TCID50/mL and 4.25 log10TCID50/mL
reduction in viral titers (A/Texas/71/2007 (H3N2)): greater than 1.0 log10TCID50/mL
selectivity index (SI, CC50/EC50) [16]: 12
EC50 ([16]; Henipavirus nipahense, HeLa, 48 h, read-out: EC50 (compound concentration that reduces viral replication by 50%)): 20 nM
Virus titer, replicates 1-3 [17]: 2.50 log10TCID50/mL and 6.75 log10TCID50/mL (2×) and 7.25 log10TCID50/mL (2×) and 3.25 log10TCID50/mL and 8.50 log10TCID50/mL and 2.75 log10TCID50/mL and 9.25 log10TCID50/mL
reduction in viral titers [17]: greater than 1.0 log10TCID50/mL
